Source: patent publication US9359322B2, “C-linked glucuronide of N-(4-hydroxybenzyl) retinone, analogs thereof, and methods of using the same to inhibit neoplastic cell growth” (Wisconsin Alumni Research Foundation, priority 2005, dated 2016)

Columns and labels:
[1] = test system: MCF-7 human breast cancer cells; assay: Growth inhibition of MCF-7 human breast cancer cells; type: cell-based; details: 10^−5 M, 8-day period; FIG. 5
Procedure: Inhibition of MCF-7 human breast cancer cell growth over an 8-day period was used as a means to assess the activity of 4-HBRCG and the analog 4-HBRCGlucose.
Growth inhibition of MCF-7 human breast cancer cells. MCF-7 cells were obtained from the American Type Culture Collection, Manassas, Va. They were maintained in DMEM medium supplemented with 4 g/L glucose, 3.7 g/L sodium bicarbonate and 10% heat-inactivated fetal calf serum. Cells were passaged into 12-well plates, cultured for 24 hours, after which time they were dosed with vehicle (0.2% ethanol) or retinoids; medium was changed and fresh vehicle or retinoids were added daily. Cells were harvested and the number of live cells was assessed using fluorescein diacetate, which yields a fluorescent product upon cleavage by metabolically active cells. Using fluorescent microscopy, at least 200 cells/well were counted with a hemacytometer.

[2] = Terminal plasma drug levels (plasma retinoid assay, HPLC); type: in vivo, rat; details: day 22 of treatment; 2 mmol/kg diet; ± SEM
Procedure: Plasma Retinoid Assay. To 500 μL of plasma was added 150 μL of ethanol containing 0.75 μg of internal standard (N-(4-chlorophenyl) retinamide). After mixing 30 sec., 500 μL of ethyl acetate was added followed by 1 min. of mixing and centrifugation for 5 minutes at 1000 rpm in an IEC CL centrifuge. The ethyl acetate layer was removed and syringe filtered through a 0.45 um filter. The ethyl acetate extraction was repeated two more times. The combined extracts were evaporated and the residue reconstituted in 100 μL of methanol. The methanol extract (20 μL) was analyzed by HPLC on a Beckman Instruments model 127 instrument equipped with a model 166 UV detector. Chromatography was done on a precolumn equipped 250×4.6 mm Bechman Ultrasphere ODS column with an 85% methanol/water mobile phase (both containing 10 mM ammonium acetate) flowing at 1 mL/min. Analysis for both internal standard and retinol was conducted at 350 nm and internal standard recoveries and retinol levels were determined by comparison with standard curves, with adjustment of the retinol level based on recovery. Recoveries of internal standard averaged ca. 78%. […] In the 4-HPR treated group, plasma levels of this retinoid were evaluated simultaneously in the same samples as above. In order to avoid interfering substances, plasma treatment retinoid levels for RA and 4-HBRCG were measured using the above system and a step gradient of 75% methanol for 15 min. followed by 85% methanol for 40 minutes.

[3] = Body weight change during retinoid feeding; type: in vivo, rat; details: relative to baseline body weight over 22 days; 2 mmol/kg diet
Procedure: Animal Studies: Mammary tumors were induced by intragastric intubation of 50-day old female Sprague-Dawley rats (Harlan Industries, Indianapolis, Ind.) with a single dose of 15 mg DMBA in 1.0 ml of sesame oil per rat. The rats were then maintained on a powdered Teklad 22/5 rodent chow diet (W) 8640 (Harlan Industries, Indianapolis, Ind.), and allowed food and water ad libitum. Four months later, rats which had developed palpable tumors were randomly assigned to the experimental groups (4 rats/group). The retinoid-treated groups were fed diets supplemented with 2 mmol/kg diet of atRA, 4-HPR, or 4-HBRCG, respectively. The retinoids were added to the diet in a vehicle consisting of 25 ml of ethanol: tricaprylin (1:4 v/v) plus 2% (w/v) of α-tocopherol as previously described.^9 This vehicle was also added to the control diet. The additives were blended into the chow diets using a Hobart food mixer. The diets were fed in stainless steel feeders designed with food hoppers. The food was replaced weekly with freshly prepared diets. Food consumption was determined once weekly, and from that the average daily consumption/rat was estimated. These diets were continuously fed for 22 days. Animals were also weighted weekly and monitored for general health status and signs of possible toxicity due to treatment.
Baseline measurement of initial tumor sizes, numbers and rat body weights were determined immediately before commencement of treatments, and final measurements were recorded just prior to sacrifice of the animals. Animals were palpated for tumors twice weekly and tumor diameters were measured weekly by a micrometer caliper. Tumor volumes were calculated using the formula [V= 4/3 πr^3] where r is one-half the mean of the sum of the largest diameter and the axis at right angle to it. All tumors as well as lungs, liver, kidney and femur were excised at the end of the experiment for chemical and histopathological evaluation. Blood samples were also taken from each animal for determination of plasma retinol and triglyceride levels.

[4] = Femur bone mineral content; type: in vivo, rat; details: end of feeding study; FIG. 2B
Source text: Bone Mineral Content. The femur was disarticulated from the leg, and the adhering soft tissue was removed by dissection. Femurs were scanned using the Lunar PIXImus 2 system (Model X2608, General Electric using the LUNAR software version 1.45), and control measurements were made using the small animal quality control phantom. Femurs were scanned 5 times each with re-positioning at each measure. The average value of the bone mineral content (BMC) in grams for each animal is reported as one independent measure.

[5] = molecular target: T1, RARγ (Homo sapiens, UniProt P13631); assay: Nuclear retinoid receptor binding assay, competition with [3H]all-trans RA; details: competition for [3H]atRA; present work
T1 sequence (P13631 1-454): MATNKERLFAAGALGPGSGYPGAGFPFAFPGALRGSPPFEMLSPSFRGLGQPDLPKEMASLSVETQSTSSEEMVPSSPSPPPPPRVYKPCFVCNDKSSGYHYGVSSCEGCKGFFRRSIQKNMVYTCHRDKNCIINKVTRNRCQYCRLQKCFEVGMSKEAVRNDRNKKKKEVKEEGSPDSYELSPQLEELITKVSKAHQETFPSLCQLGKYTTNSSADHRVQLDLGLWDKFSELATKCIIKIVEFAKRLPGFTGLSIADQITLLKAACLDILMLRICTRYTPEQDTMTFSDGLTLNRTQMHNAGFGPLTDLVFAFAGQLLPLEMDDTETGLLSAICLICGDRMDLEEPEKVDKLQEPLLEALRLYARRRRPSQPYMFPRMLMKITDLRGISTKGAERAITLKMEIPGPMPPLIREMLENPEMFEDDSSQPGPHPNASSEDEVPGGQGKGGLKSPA
Procedure: Nuclear Retinoid Receptor Binding Assay. Competition of 3 and 7 and 4-HBRCGlucose with [^3H]-all-trans-RA (4.2-4.6 nM) for binding to RARβ and RARγ and with [^3H]-9-cis RA (1.9 nM) for binding to RXRγ was determined using an in vitro ligand binding assay.^41, 42 [^3H]-all-trans-RA (40.5 Ci/mmole) or [^3H]-9-cis-RA (69.4 Ci/mmole) was added to receptor-containing extracts in the absence and presence of increasing concentrations of competing ligands at 4° C. for 3 hr. A hydroxylapatite (HAP) assay was used to separate ligand bound to receptor from that free in solution, and the radioactivity associated with the HAP pellet was measured by scintillation counting.

CC1=C(/C=C/C(C)=C/C=C/C(C)=C/C(=O)Cc2ccc(CC3OC(C(=O)O)C(O)C(O)C3O)cc2)C(C)(C)CCC1 [4-HBRCG (7), 2,6-Anhydro-7-deoxy-7-[4-(retinoylmethyl)-phenyl]-L-glycero-L-gulo-heptinoic acid]
Effect on number of live MCF-7 cells [1]: reduction in the number of live cells
Plasma retinoid concentration (terminal plasma drug level) [2]: 0.10 ± 0.01 µg/mL
% Weight change [3]: +3%
Effect on femur bone mineral content vs control [4]: showed no such effect
Times less potent than atRA in binding to RARγ [5]: 1400 times
